# Assay results: patent US8546376B2, “Pharmaceutical compounds” (Almac Discovery Limited, priority 2009, dated 2013)
# Structures can show the parent of a compound that is named as a salt.
# Legend:
# [1] = target: T1, AKT1 (Homo sapiens, UniProt P31749); assay: AKT Kinase Assay (IMAP fluorescent polarisation) vs AKT1; format: biochemical; settings: activated AKT1, FAM Crosstide substrate
# T1 construct: purchased SignalChem
# In short: (§1)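 IC50 values came from non-linear regression of % inhibition relative to vehicle, measured by IMAP fluorescence polarisation (485/528 nm) after a 1 h room-temperature reaction of FAM-Crosstide and ATP. Each activated isoform was first exposed to compound for 45 min across fourteen half-log doses.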
# [2] = target: T2, AKT2 (Homo sapiens, UniProt P31751); assay: AKT Kinase Assay (IMAP fluorescent polarisation) vs AKT2; format: biochemical; settings: activated AKT2, FAM Crosstide substrate
# T2 construct: purchased SignalChem
# In short: as §1
# [3] = target: T3, AKT3 (Homo sapiens, UniProt Q9Y243); assay: AKT Kinase Assay (IMAP fluorescent polarisation) vs AKT3; format: biochemical; settings: activated AKT3, FAM Crosstide substrate
# T3 construct: purchased SignalChem
# In short: as §1
# [4] = test system: PC3 and/or LnCaP cell lines; assay: In vitro cell proliferation assay (Cell Titre Glo); format: cell-based; settings: Homo sapiens, 72 hours, read-out: inhibition of proliferation IC50
# Experimental: Testing of the compounds was also performed using in vitro cell proliferation assays:
# Cell Titre Glo (Promega) is a highly sensitive homogeneous reagent used to determine the viability of cells. The reagent uses a stable form of luciferase to measure ATP as an output of viability. The luminescent values generated in the assay are directly proportional to the number of viable cells in your assay.
# The following materials were used: White, clear bottomed 96 well assay plates (Costar); Cell titre Glo reagents; LnCaP (ECACC) cells grown in RPMI medium (Invitrogen) supplemented with 10 mM HEPES (Invitrogen), 1 mM Sodium pyruvate (Invitrogen), 2 mM L-Glutamine (Invitrogen) and 10% Foetal calf serum (Invitrogen); PC3 (ECACC) cells grown in RPMI medium supplemented with 10% Foetal calf serum (Invitrogen); Trypsin (Invitrogen); PBS (Invitrogen); Biotek Synergy 4 Hybrid Plate reader; 96 well plate shaker (Stuart SSL5); Eppendorf 5414 desk-top centrifuge; Beckman Coulter cell counter Z1 single threshold system.
# Prostate cell lines, PC3 and LnCaP, were washed, detached and re-suspended in their respective fresh media. The cells were pelleted by centrifugation (Eppendorf 5414) and spent supernatant discarded. The cells were re-suspended by vortex mixing, counted and seeded into clear bottom white 96 well plates at a density of 5000 cells per well. The cells were incubated (Sanyo) overnight at 37° C. ([…]), and next day treated with increasing concentrations of test compound formulated in fresh medium. The plates were returned to the incubator for 72 hours. […]
# The cell viability post compound treatment was determined by the luminescent intensity emitted from the drug treated wells in the plate. In brief, the assay plate was placed in the Biotex Synergy 4 Hybrid plate reader and the luminescence read in each well. The compound treated wells were compared to vehicle treated wells and the % inhibition of cell viability calculated.
# The data was analysed using GraphPad Prism, with IC50 values generated using non-linear regression of the data set.
# [5] = test system: AKT phosphorylation; assay: Phosphorylation status of AKT/PI3K pathway members via western blotting; format: cell-based; settings: for 48 h at 10 μM
# Text: Analysis of Compound Effects on AKT Signalling Pathways
# Phosphorylation status of various members of the AKT/PI3K pathway were investigated via western blotting.
# Materials Required for this Assay: 20× Running buffer (Invitrogen); Rainbow marker ladder (GE Healthcare); Reducing buffer (Invitrogen); 20× Transfer buffer (Invitrogen); 4-12% Bis-Tris Gels (Invitrogen); Filter paper (Whatman); Nitrocellulose (Amersham); ECL plus detection reagents (GE Healthcare); Radiographic film (Kodak); Biorad Protein determination reagent (Biorad); AKT pathway signalling antibodies (Cell Signalling)
# LnCaP and PC3 cell lines were washed, detached and re-suspended in fresh medium. They were seeded in 90 mm^2 dishes and incubated overnight ([…]/5% CO2) to allow adherence. […]
# The medium was removed and the cells placed on ice and washed in PBS. […] The resultant supernatant was assayed for protein content using the Bradford method (Biorad) and equal quantities of protein calculated and heated in sample reducing buffer to 95° C. for ten minutes. […]
# The membranes were used to determine difference in total AKT, pSer473 AKT, pGSK3β and total GSK3β (all sourced from Cell Signalling). […] The membranes were washed three times in PBS and incubated with the respective secondary antibodies (Sigma Aldrich) for two hours and the proteins were detected using ECL plus detection reagents (GE Healthcare).
# T2 sequence (P31751 whole entry): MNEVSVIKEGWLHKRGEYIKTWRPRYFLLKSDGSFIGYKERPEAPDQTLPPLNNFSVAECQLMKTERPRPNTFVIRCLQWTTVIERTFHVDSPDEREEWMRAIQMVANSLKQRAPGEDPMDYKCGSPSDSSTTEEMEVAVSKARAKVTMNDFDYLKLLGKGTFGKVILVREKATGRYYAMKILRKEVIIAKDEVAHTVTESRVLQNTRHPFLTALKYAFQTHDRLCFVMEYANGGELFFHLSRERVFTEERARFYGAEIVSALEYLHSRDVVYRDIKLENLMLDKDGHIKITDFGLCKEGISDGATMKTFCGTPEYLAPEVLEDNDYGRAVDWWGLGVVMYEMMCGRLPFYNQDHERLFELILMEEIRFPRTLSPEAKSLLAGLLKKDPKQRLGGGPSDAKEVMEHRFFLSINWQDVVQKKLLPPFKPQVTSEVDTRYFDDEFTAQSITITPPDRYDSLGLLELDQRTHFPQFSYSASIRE
# T3 sequence (Q9Y243 whole entry): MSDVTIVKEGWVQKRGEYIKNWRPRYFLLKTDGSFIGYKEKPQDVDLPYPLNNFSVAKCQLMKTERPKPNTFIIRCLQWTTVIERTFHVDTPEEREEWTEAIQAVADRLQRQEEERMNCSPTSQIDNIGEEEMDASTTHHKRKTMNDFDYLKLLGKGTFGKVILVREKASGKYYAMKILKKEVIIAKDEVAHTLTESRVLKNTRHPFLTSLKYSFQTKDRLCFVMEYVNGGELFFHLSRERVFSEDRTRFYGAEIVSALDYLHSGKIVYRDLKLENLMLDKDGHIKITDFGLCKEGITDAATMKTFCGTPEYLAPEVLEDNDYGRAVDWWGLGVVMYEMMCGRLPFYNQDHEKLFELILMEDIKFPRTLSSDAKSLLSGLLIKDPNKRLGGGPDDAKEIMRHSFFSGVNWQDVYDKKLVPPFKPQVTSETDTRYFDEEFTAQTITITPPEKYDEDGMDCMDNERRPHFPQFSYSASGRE
# T1 sequence (P31749 whole entry): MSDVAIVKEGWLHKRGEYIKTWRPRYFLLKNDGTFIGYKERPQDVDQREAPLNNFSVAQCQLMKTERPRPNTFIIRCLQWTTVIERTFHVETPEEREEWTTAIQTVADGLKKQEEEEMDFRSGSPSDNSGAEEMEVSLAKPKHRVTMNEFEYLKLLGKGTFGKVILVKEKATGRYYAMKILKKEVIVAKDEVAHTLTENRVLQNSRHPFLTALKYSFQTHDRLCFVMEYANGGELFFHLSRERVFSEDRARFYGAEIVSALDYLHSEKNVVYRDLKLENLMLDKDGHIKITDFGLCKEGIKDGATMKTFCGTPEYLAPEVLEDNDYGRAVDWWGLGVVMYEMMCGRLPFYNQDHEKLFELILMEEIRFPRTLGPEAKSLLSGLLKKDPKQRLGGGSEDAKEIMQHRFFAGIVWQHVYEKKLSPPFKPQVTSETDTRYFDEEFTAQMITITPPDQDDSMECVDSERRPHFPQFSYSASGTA
SMILES,IC50 [1] [nM],IC50 [2] [nM],IC50 [3] [nM],IC50 [4] [nM],inhibition of AKT phosphorylation [5]
"COc1ccc2c(=O)c(-c3ccc(C4(N)CCC4)cc3)c(-c3ccccc3)oc2c1OC [Example 4, 3-[4-(1-Amino-cyclobutyl)-phenyl]-7,8-dimethoxy-2-phenyl-chromen-4-one]",1000 to 10000,≤ 1000,> 10000,< 10000,
"CN1CCN(c2ccc3oc(-c4ccccc4)c(-c4ccc(C5(N)CCC5)cc4)c(=O)c3c2)CC1 [Example 20, 3-[4-(1-Amino-cyclobutyl)-phenyl]-6-(4-methyl-piperazin-1-yl)-2-phenyl-chromen-4-one]",1000 to 10000,≤ 1000,> 10000,,inhibition of AKT phosphorylation
"Cl.NC1(c2ccc(-c3c(-c4ccccc4)oc4c(=O)[nH]ccc4c3=O)cc2)CCC1 [Example 40, 3-[4-(1-Amino-cyclobutyl)-phenyl]-2-phenyl-7H-pyrano[2,3-c]pyridine-4,8-dione hydrochloride]",≤ 1000,≤ 1000,1000 to 10000,< 10000,inhibition of AKT phosphorylation
"NC1(c2ccc(-c3c(-c4ccccc4)oc4c(cc(Cl)c5nc[nH]c54)c3=O)cc2)CCC1 [Example 44, 7-[4-(1-Amino-cyclobutyl)-phenyl]-4-chloro-8-phenyl-1H-chromeno[7,8-d]imidazol-6-one]",≤ 1000,≤ 1000,≤ 1000,< 10000,
"NC1(c2ccc(-c3c(-c4ccccc4)oc4c(-c5cccc(F)c5C(=O)O)nccc4c3=O)cc2)CCC1 [Example 121, 2-(3-(4-(1-aminocyclobutyl)phenyl)-4-oxo-2-phenyl-4H-pyrano[2,3-c]pyridin-8-yl)-6-fluorobenzoic acid]",1000 to 10000,> 10000,> 10000,,
N#Cc1cccc(-c2nccc3c(=O)c(-c4ccc(C5(N)CCC5)cc4)c(-c4ccccc4)oc23)c1 [Example 122],≤ 1000,≤ 1000,> 10000,,
"NC1(c2ccc(-c3c(-c4ccccc4)oc4c(-c5cccnc5)nccc4c3=O)cc2)CCC1 [Example 123, 3-(4-(1-aminocyclobutyl)phenyl)-2-phenyl-8-(pyridin-3-yl)-4H-pyrano[2,3-c]pyridin-4-one hydrochloride]",≤ 1000,≤ 1000,1000 to 10000,,
"NC1(c2ccc(-c3c(-c4ccccc4)oc4c(-c5ccccc5)nccc4c3=O)cc2)CCC1 [Example 124, 3-(4-(1-aminocyclobutyl)phenyl)-2,8-diphenyl-4H-pyrano[2,3-c]pyridin-4-one]",≤ 1000,1000 to 10000,1000 to 10000,,
"NC1(c2ccc(-c3c(-c4ccccc4)oc4c(OCCO)nccc4c3=O)cc2)CCC1 [Example 125, 3-(4-(1-aminocyclobutyl)phenyl)-8-(2-hydroxyethoxy)-2-phenyl-4H-pyrano[2,3-c]pyridin-4-one]",≤ 1000,1000 to 10000,> 10000,,
"NC1(c2ccc(-c3c(-c4ccccc4)oc4c(C5CC5)nccc4c3=O)cc2)CCC1 [Example 126, hydrochloride]",≤ 1000,1000 to 10000,> 10000,,
"N#Cc1nccc2c(=O)c(-c3ccc(C4(N)CCC4)cc3)c(-c3ccccc3)oc12 [Example 127, 3-(4-(1-aminocyclobutyl)phenyl)-4-oxo-2-phenyl-4H-pyrano[2,3-c]pyridine-8-carbonitrile]",≤ 1000,1000 to 10000,> 10000,,
"CCc1nccc2c(=O)c(-c3ccc(C4(N)CCC4)cc3)c(-c3ccccc3)oc12 [Example 128, 3-(4-(1-aminocyclobutyl)phenyl)-8-ethyl-2-phenyl-4H-pyrano[2,3-c]pyridin-4-one]",≤ 1000,1000 to 10000,> 10000,,
"NC1(c2ccc(-c3c(-c4ccccc4)oc4c(CCCl)nccc4c3=O)cc2)CCC1 [Example 129, 3-(4-(1-aminocyclobutyl)phenyl)-8-(2-chloroethyl)-2-phenyl-4H-pyrano[2,3-c]pyridin-4-one]",≤ 1000,≤ 1000,1000 to 10000,,
